Laboratory results as given in paper PMC12442245, “Activity Analysis of the P2X Receptor Antagonist PPADS against Signal Transducer and Activator of Transcription Proteins” (Chembiochem, 2025).

Experiments:
STAT3 = STAT3 (Homo sapiens, UniProt P40763); assay: Competitive fluorescence polarization (FP) assay, STAT3; assay type: binding; details: no reducing agent, 1 h
Text: Screening of chemical libraries
Screening of chemical libraries comprising approximately 5000 known bioactive compounds in fluorescence polarization-based assays against phosphorylation-dependent protein-protein interaction domains, including STAT proteins, has been described.[1] PPADS was purchased from Sigma-Aldrich, and iso-PPADS from Bio-Techne.
(§1) Fluorescence polarization assays
(§2) Competitive fluorescence polarization (FP) assays for STAT1,[2] STAT3,[3] STAT4,[4] STAT5a,[5] STAT5b[6] and STAT6[1] were performed as previously described. Briefly, peptide binding to proteins was analyzed using the following carboxyfluorescein (CF) -labelled pepti des at a concentration of 10 nM: STAT1: 5-CF-GpYDKPHVL-OH, STAT3: 5-CF-GpYLPQTV -NH2, STAT4: 5-CF-GpYLPQNID-OH, STAT5a and STAT5b: 5-CF-GpYLVLDKW-OH, STAT6: 5- […]
CFGp[…]-OH. Proteins were used at a final concentration representing the approximate Kd value for binding of the corresponding peptide to the protein, namely 65 nM for STAT1, 65 nM for STAT3, 35 nM for STAT4, 125 nM for STAT5a, 65 nM for STAT5b and 75 nM for STAT6. […] FP was measured using an Infinite F500 plate reader (Tecan) and measurements were converted into percent inhibition according to the binding curve equation. Curves were plotted and best fits calculated using OriginPro […]

STAT5a = biological target: T1, STAT5a (Homo sapiens, UniProt P42229); assay: HTRF assay, STAT5a; assay type: binding; details: STAT5a 110 nM, without reducing agent, 1 h
T1 sequence (P42229 1-794): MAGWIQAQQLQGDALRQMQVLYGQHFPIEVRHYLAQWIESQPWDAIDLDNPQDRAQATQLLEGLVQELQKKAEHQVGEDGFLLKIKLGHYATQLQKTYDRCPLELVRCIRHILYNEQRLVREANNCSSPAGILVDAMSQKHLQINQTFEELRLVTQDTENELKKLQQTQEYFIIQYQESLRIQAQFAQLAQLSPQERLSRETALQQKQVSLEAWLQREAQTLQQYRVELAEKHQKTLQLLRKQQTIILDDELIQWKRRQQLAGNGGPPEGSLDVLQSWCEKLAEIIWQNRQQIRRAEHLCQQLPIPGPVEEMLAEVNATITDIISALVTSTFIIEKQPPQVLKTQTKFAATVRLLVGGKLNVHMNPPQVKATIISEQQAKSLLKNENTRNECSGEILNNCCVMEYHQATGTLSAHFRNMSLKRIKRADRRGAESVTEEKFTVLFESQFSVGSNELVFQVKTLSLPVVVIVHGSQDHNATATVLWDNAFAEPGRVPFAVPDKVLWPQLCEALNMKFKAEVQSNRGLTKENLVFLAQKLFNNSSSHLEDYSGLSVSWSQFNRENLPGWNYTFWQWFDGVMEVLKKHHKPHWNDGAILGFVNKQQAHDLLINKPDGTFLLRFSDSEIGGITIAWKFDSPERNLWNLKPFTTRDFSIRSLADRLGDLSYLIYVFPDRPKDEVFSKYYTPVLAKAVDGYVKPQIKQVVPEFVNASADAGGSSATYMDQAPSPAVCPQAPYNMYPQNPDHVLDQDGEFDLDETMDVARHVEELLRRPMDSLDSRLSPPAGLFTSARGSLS
Text: The azo dyes PPADS and iso‐PPADS have a deep red color in aqueous solution. […] In order to exclude this possibility, we established homogeneous time‐resolved fluorescence resonance energy transfer (HTRF) assays to confirm the degree of binding between STAT4, STAT5a, and STAT5b and the respective 5‐carboxyfluorescein‐labeled binding peptides used in the FP assay. In addition, an HTRF assay was established for STAT3, one of the STAT proteins targeted to a lesser extent in FP assays, as a specificity control (Figure 1B,C). The STAT protein constructs each contain a 6x‐His‐tag.^[ [15], [16], [17], [22] ^] A Tb^3+‐cryptate fused to an anti‐6x‐His antibody was chosen as the long‐lived fluorescent donor, while the carboxyfluorescein linked to the respective STAT‐binding peptides served as the acceptor (Figure 2A). Emission was measured with a time delay of 60 μs after excitation, allowing any initial compound fluorescence to decay beforehand. […]
Screening of chemical libraries comprising approximately 5000 known bioactive compounds in fluorescence polarization-based assays against phosphorylation-dependent protein-protein interaction domains, including STAT proteins, has been described.[1] […]
as §1
as §2, with “STAT3,[3] STAT4,[4] STAT5a,[5] STAT5b[6] and STAT6[1] were performed as previously described.” left out
CFGp[…]-OH. […] FP was measured using an Infinite F500 plate reader (Tecan) and measurements were converted into percent inhibition according to the binding curve equation. Curves were plotted and best fits calculated using OriginPro […]
Homogenous time-resolved fluorescence (HTRF) assays for STAT3, STAT4, STAT5a and STAT5b were carried out using Cisbio Monoclonal Antibody Anti-6His-Tb Gold as the fluorescence donor (Perkin Elmer) and the corresponding CF-labelled binding peptide as the acceptor. […] The average reading from 3 wells was obtained. […]

Sequence of STAT3 (P40763 whole entry, species assumed): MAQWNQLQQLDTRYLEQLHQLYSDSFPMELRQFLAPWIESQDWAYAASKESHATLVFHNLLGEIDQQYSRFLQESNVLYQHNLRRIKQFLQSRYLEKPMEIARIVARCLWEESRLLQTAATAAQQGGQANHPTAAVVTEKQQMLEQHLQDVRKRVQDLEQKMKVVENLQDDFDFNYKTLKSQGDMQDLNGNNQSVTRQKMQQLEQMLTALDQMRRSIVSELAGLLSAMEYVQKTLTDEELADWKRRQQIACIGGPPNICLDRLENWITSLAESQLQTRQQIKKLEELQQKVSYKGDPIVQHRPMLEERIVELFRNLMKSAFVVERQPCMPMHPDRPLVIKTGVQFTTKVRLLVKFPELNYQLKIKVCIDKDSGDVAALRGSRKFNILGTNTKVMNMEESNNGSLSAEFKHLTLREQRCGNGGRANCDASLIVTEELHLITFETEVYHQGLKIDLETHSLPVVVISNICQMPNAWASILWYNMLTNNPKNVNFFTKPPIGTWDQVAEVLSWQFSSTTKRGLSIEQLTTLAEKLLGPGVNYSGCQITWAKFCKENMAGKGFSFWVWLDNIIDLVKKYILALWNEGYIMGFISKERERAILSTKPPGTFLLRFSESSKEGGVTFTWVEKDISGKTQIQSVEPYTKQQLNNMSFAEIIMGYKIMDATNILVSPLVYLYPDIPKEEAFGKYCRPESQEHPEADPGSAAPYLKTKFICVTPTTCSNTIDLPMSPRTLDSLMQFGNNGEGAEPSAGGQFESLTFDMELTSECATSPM

Row | SMILES | IC50 (STAT3) [µM] | IC50 (STAT5a) [µM]
1 | Cc1nc(/N=N/c2ccc(S(=O)(=O)O)cc2S(=O)(=O)O)c(COP(=O)(O)O)c(C=O)c1O [PPADS, pyridoxalphosphate‐6‐azophenyl‐2',4'‐disulfonic acid] | 22.6 ± 1.6 | 1.41 ± 0.35
2 | Cc1nc(/N=N/c2cc(S(=O)(=O)O)ccc2S(=O)(=O)O)c(COP(=O)(O)O)c(C=O)c1O [iso‐PPADS] | 54 ± 14 | 8.2 ± 0.7
